Assay results published in ChEMBL document CHEMBL1201862, “PubChem BioAssay data set” (2004).
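Values below derive from 48-hour exposures of cells grown in 96-well plates, with endpoints linearly interpolated between the two concentrations bracketing the appropriate inhibition level. GI50: concentration for 50% inhibition of growth.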 Activity calls are given as the source filed them. No stated cut-off is given here; in the data, active = GI50 up to about 1.1 µM and inactive = higher.

Experiments:
Assay in all cases: inhibition of tumour cell growth, NCI panel, 48 h
MDA-MB-435 = test system: MDA-MB-435
MOLT-4 = test system: MOLT-4
HOP-92 = test system: HOP-92
RPMI-8226 = test system: RPMI-8226
HOP-62 = test system: HOP-62
HL-60 = test system: HL-60
MDA-N = test system: MDA-N
SF-268 = test system: SF-268
UACC-257 = test system: UACC-257
IGROV-1 = test system: IGROV-1
SR = test system: SR
LOX IMVI = test system: LOX IMVI
SK-MEL-2 = test system: SK-MEL-2
PC-3 = test system: PC-3
SK-OV-3 = test system: SK-OV-3
SF-539 = test system: SF-539
SK-MEL-5 = test system: SK-MEL-5
HCC 2998 = test system: HCC 2998
COLO 205 = test system: COLO 205
T47D = test system: T47D
CAKI-1 = test system: CAKI-1
BT-549 = test system: BT-549
UACC-62 = test system: UACC-62
TK-10 = test system: TK-10
A498 = test system: A498
786-0 = test system: 786-0
KM12 = test system: KM12
NCI-H460 = test system: NCI-H460
Hs-578T = test system: Hs-578T
NCI/ADR-RES = test system: NCI/ADR-RES
RXF 393 = test system: RXF 393
ACHN = test system: ACHN
SN12C = test system: SN12C
OVCAR-5 = test system: OVCAR-5
K562 = test system: K562
OVCAR-4 = test system: OVCAR-4
UO-31 = test system: UO-31
SF-295 = test system: SF-295
SNB-19 = test system: SNB-19
M14 = test system: M14
OVCAR-3 = test system: OVCAR-3
NCI-H522 = test system: NCI-H522
U-251 = test system: U-251
HCT-116 = test system: HCT-116
OVCAR-8 = test system: OVCAR-8
NCI-H23 = test system: NCI-H23
MCF7 = test system: MCF7
A549 = test system: A549
DU-145 = test system: DU-145
HCT-15 = test system: HCT-15
CCRF-CEM = test system: CCRF-CEM
SK-MEL-28 = test system: SK-MEL-28
SW-620 = test system: SW-620
HT-29 = test system: HT-29
SNB-75 = test system: SNB-75
Malme-3M = test system: Malme-3M
EKVX = test system: EKVX
MDA-MB-231 = test system: MDA-MB-231
NCI-H226 = test system: NCI-H226

For `CC12CC3OC(=O)C1COC14OC5(C2C1=O)C(O)(CCC1C4CC2OC24CC=CC(=O)C14C)C(=O)OC35C` (centres undefined), the GI50 (MDA-MB-435) was 13.6 µM (inactive), the GI50 (MOLT-4) was 15.5 µM (inactive) and the GI50 (HOP-92) was 21.8 µM (inactive). The GI50 (RPMI-8226) was 19.2 µM (inactive), the GI50 (HOP-62) was 20.9 µM (inactive) and the GI50 (HL-60) was 8.04 µM (inactive). The GI50 (MDA-N) was 12.4 µM (inactive), the GI50 (SF-268) was 36.7 µM (inactive) and the GI50 (UACC-257) was 13 µM (inactive). The GI50 (IGROV-1) was 18.4 µM (inactive), the GI50 (SR) was 8.85 µM (inactive) and the GI50 (LOX IMVI) was 11.3 µM (inactive). The GI50 (SK-MEL-2) was 14.5 µM (inactive), the GI50 (PC-3) was 20.3 µM (inactive) and the GI50 (SK-OV-3) was 28.6 µM (inactive). The GI50 (SF-539) was 12.6 µM (inactive), the GI50 (SK-MEL-5) was 3.88 µM (inactive) and the GI50 (HCC 2998) was 18.7 µM (inactive). For the same molecule, the GI50 (COLO 205) was 10.3 µM (inactive), the GI50 (T47D) was 15.7 µM (inactive) and the GI50 (CAKI-1) was 13 µM (inactive). The GI50 (BT-549) was 2.64 µM (inactive), the GI50 (UACC-62) was 13.2 µM (inactive) and the GI50 (TK-10) was 13.6 µM (inactive). The GI50 (A498) was 18.8 µM (inactive), the GI50 (786-0) was 13.2 µM (inactive) and the GI50 (KM12) was 17.3 µM (inactive). The GI50 (NCI-H460) was 30.4 µM (inactive), the GI50 (Hs-578T) was > 100 µM (inactive) and the GI50 (NCI/ADR-RES) was 38.1 µM (inactive). For the same molecule, the GI50 (RXF 393) was 3.99 µM (inactive), the GI50 (ACHN) was 16.4 µM (inactive) and the GI50 (SN12C) was 21.5 µM (inactive). The GI50 (OVCAR-5) was 18.4 µM (inactive), the GI50 (K562) was 12.8 µM (inactive) and the GI50 (OVCAR-4) was 66.2 µM (inactive). The GI50 (UO-31) was 16.9 µM (inactive), the GI50 (SF-295) was 24.8 µM (inactive) and the GI50 (SNB-19) was 20 µM (inactive). The GI50 (M14) was 17.2 µM (inactive), the GI50 (OVCAR-3) was 13.9 µM (inactive) and the GI50 (NCI-H522) was 5.6 µM (inactive). For the same molecule, the GI50 (U-251) was 14.5 µM (inactive), the GI50 (HCT-116) was 11.6 µM (inactive) and the GI50 (OVCAR-8) was 43.8 µM (inactive). For the same molecule, the GI50 (NCI-H23) was 15.4 µM (inactive), the GI50 (MCF7) was 8.85 µM (inactive) and the GI50 (A549) was 27 µM (inactive). For the same molecule, the GI50 (DU-145) was 14.6 µM (inactive), the GI50 (HCT-15) was 16.4 µM and the GI50 (CCRF-CEM) was 4.1 µM (inactive). For the same molecule, the GI50 (SK-MEL-28) was 8.47 µM (inactive), the GI50 (SW-620) was 12.4 µM (inactive) and the GI50 (HT-29) was 28.5 µM (inactive). For the same molecule, the GI50 (SNB-75) was 76.7 µM (inactive), the GI50 (Malme-3M) was 18.5 µM (inactive) and the GI50 (EKVX) was 32 µM (inactive). For the same molecule, the GI50 (MDA-MB-231) was 18.5 µM (inactive).

`Cc1ccc(/C=N/n2c(-c3ccc(C)cc3)n[nH]c2=O)cc1` was tested, and the GI50 (MDA-MB-435) was 47.2 µM (inactive), the GI50 (MOLT-4) was 92.7 µM (inactive) and the GI50 (HOP-92) was 55.8 µM (inactive). For the same molecule, the GI50 (RPMI-8226) was > 100 µM (inactive), the GI50 (HOP-62) was 61.9 µM (inactive) and the GI50 (HL-60) was > 100 µM (inactive). For the same molecule, the GI50 (MDA-N) was 80.7 µM (inactive), the GI50 (SF-268) was > 100 µM (inactive) and the GI50 (UACC-257) was > 100 µM (inactive). For the same molecule, the GI50 (IGROV-1) was > 100 µM (inactive), the GI50 (SR) was 25.4 µM (inactive) and the GI50 (SK-MEL-2) was > 100 µM (inactive). The GI50 (PC-3) was > 100 µM (inactive), the GI50 (SK-OV-3) was 28.7 µM (inactive) and the GI50 (SF-539) was 50.4 µM (inactive). The GI50 (SK-MEL-5) was 38.1 µM (inactive), the GI50 (HCC 2998) was > 100 µM (inactive) and the GI50 (COLO 205) was > 100 µM (inactive). For the same molecule, the GI50 (T47D) was > 100 µM (inactive), the GI50 (CAKI-1) was 35.9 µM (inactive) and the GI50 (BT-549) was 90.4 µM (inactive). The GI50 (UACC-62) was 78 µM (inactive), the GI50 (TK-10) was 60.8 µM (inactive) and the GI50 (A498) was 26.9 µM (inactive). For the same molecule, the GI50 (786-0) was 29.6 µM (inactive), the GI50 (KM12) was > 100 µM (inactive) and the GI50 (NCI-H460) was 21.5 µM (inactive). For the same molecule, the GI50 (Hs-578T) was > 100 µM (inactive), the GI50 (NCI/ADR-RES) was 59.6 µM (inactive) and the GI50 (RXF 393) was 23.1 µM (inactive). For the same molecule, the GI50 (ACHN) was 79.8 µM (inactive), the GI50 (SN12C) was 94.6 µM (inactive) and the GI50 (OVCAR-5) was 84.9 µM (inactive). The GI50 (K562) was 96.4 µM (inactive), the GI50 (OVCAR-4) was 40 µM (inactive) and the GI50 (UO-31) was 75 µM (inactive). For the same molecule, the GI50 (SF-295) was 48.8 µM (inactive), the GI50 (SNB-19) was 77.4 µM (inactive) and the GI50 (M14) was 68.4 µM (inactive). The GI50 (OVCAR-3) was > 100 µM (inactive), the GI50 (NCI-H522) was > 100 µM (inactive) and the GI50 (NCI-H226) was > 100 µM (inactive). The GI50 (U-251) was 35.3 µM (inactive), the GI50 (HCT-116) was 54 µM (inactive) and the GI50 (OVCAR-8) was 36.7 µM (inactive). The GI50 (NCI-H23) was 29.2 µM (inactive), the GI50 (MCF7) was > 100 µM (inactive) and the GI50 (A549) was 41 µM (inactive). For the same molecule, the GI50 (DU-145) was 91.6 µM (inactive), the GI50 (HCT-15) was 66.7 µM and the GI50 (CCRF-CEM) was 21.5 µM (inactive). The GI50 (SK-MEL-28) was > 100 µM (inactive), the GI50 (SW-620) was > 100 µM (inactive) and the GI50 (HT-29) was > 100 µM (inactive). The GI50 (SNB-75) was > 100 µM (inactive), the GI50 (Malme-3M) was 80.5 µM (inactive) and the GI50 (EKVX) was > 100 µM (inactive). For the same molecule, the GI50 (MDA-MB-231) was 45.8 µM (inactive).

For `Clc1ccc(Cc2nc3cc(CCN4CCN(c5ccccc5)CC4)ccc3[nH]2)cc1`, the GI50 (MDA-MB-435) was 12.9 µM (inactive), the GI50 (MOLT-4) was 6.62 µM (inactive) and the GI50 (HOP-92) was 21 µM (inactive). The GI50 (RPMI-8226) was 4.6 µM (inactive), the GI50 (HOP-62) was 15.4 µM (inactive) and the GI50 (HL-60) was 12.6 µM (inactive). For the same molecule, the GI50 (MDA-N) was 15.3 µM (inactive), the GI50 (SF-268) was 25.5 µM (inactive) and the GI50 (UACC-257) was 5.42 µM (inactive). The GI50 (IGROV-1) was 27.5 µM (inactive), the GI50 (SR) was 8.02 µM (inactive) and the GI50 (LOX IMVI) was 12.6 µM (inactive). For the same molecule, the GI50 (SK-MEL-2) was 15 µM (inactive), the GI50 (PC-3) was 18.6 µM (inactive) and the GI50 (SK-OV-3) was 17.9 µM (inactive). For the same molecule, the GI50 (SF-539) was 17.3 µM (inactive), the GI50 (SK-MEL-5) was 12.6 µM (inactive) and the GI50 (COLO 205) was 4.06 µM (inactive). The GI50 (T47D) was 7.01 µM (inactive), the GI50 (CAKI-1) was 14.4 µM (inactive) and the GI50 (BT-549) was 16.4 µM (inactive). The GI50 (UACC-62) was 16 µM (inactive), the GI50 (TK-10) was 12.8 µM (inactive) and the GI50 (A498) was 14.4 µM (inactive). For the same molecule, the GI50 (786-0) was 6.87 µM (inactive), the GI50 (KM12) was 11.3 µM (inactive) and the GI50 (NCI-H460) was 12.9 µM (inactive). For the same molecule, the GI50 (Hs-578T) was 20.3 µM (inactive), the GI50 (NCI/ADR-RES) was 19.1 µM (inactive) and the GI50 (RXF 393) was 5.24 µM (inactive). The GI50 (ACHN) was 19.5 µM (inactive), the GI50 (SN12C) was 16 µM (inactive) and the GI50 (OVCAR-5) was 26.1 µM (inactive). The GI50 (K562) was 5.93 µM (inactive), the GI50 (OVCAR-4) was 10.3 µM (inactive) and the GI50 (UO-31) was 8.07 µM (inactive). For the same molecule, the GI50 (SF-295) was 12.3 µM (inactive), the GI50 (SNB-19) was 20.7 µM (inactive) and the GI50 (M14) was 5.73 µM (inactive). For the same molecule, the GI50 (OVCAR-3) was 13 µM (inactive), the GI50 (NCI-H522) was 14.1 µM (inactive) and the GI50 (NCI-H226) was 22.5 µM (inactive). The GI50 (U-251) was 13 µM (inactive), the GI50 (HCT-116) was 12 µM (inactive) and the GI50 (OVCAR-8) was 17 µM (inactive). The GI50 (NCI-H23) was 13.8 µM (inactive), the GI50 (MCF7) was 16 µM (inactive) and the GI50 (A549) was 13.4 µM (inactive). For the same molecule, the GI50 (DU-145) was 17.4 µM (inactive), the GI50 (HCT-15) was 15 µM and the GI50 (CCRF-CEM) was > 100 µM (inactive). For the same molecule, the GI50 (SK-MEL-28) was 19.1 µM (inactive), the GI50 (SW-620) was > 100 µM (inactive) and the GI50 (HT-29) was 5.58 µM (inactive). For the same molecule, the GI50 (SNB-75) was 12.8 µM (inactive), the GI50 (Malme-3M) was 15.7 µM (inactive) and the GI50 (EKVX) was 22 µM (inactive). The GI50 (MDA-MB-231) was 13 µM (inactive).
